The values that follow come from patent US12653190B2, “Heteroaryl-triazole compounds as pesticides” (Bayer Aktiengesellschaft, priority 2020, dated 2026).

Common to all, as to format: in vivo
In assay [1] the test system is adult unfed cat fleas (Ctenocephalides felis). Nature of the assay: Ctenocephalides felis oral test. The settings on record: 48 h, 100 ppm in cattle blood, after 2 days. As to the method: Ctenocephalides felis—Oral Test
• Solvent: dimethyl sulfoxide
To produce a suitable preparation of active compound, 10 mg of active compound are dissolved in 0.5 mL solvent, and the concentrate is diluted with cattle blood to the desired concentration.
Approximately 20 adult unfed cat fleas (Ctenocephalides felts) are placed in flea chambers. The blood chamber, sealed with parafilm on the bottom, are filled with cattle blood supplied with compound solution and placed on the gauze covered top of the flea chamber, so that the fleas are able to suck the blood. The blood chamber is heated to 37° C. whereas the flea chamber is kept at room temperature.
After 2 days mortality in % is determined. 100% means all the fleas have been killed; 0% means none of the fleas have been killed.

Assay [2] deals with adult brown dog ticks (Rhipicephalus sanguineus). Nature of the assay: Rhipicephalus sanguineus in-vitro contact test, adult brown dog ticks. As to conditions: 5 μg/cm^2 (=500 g/ha), after 48 hours, read-out: efficacy (ticks dead or moribund). The procedure: Rhipicephalus sanguineus—In-Vitro Contact Tests with Adult Brown Dog Ticks
9 mg compound is solved in 1 mL acetone and diluted with acetone to the desired concentration. 250 μL of the test solution is filled in 25 mL glass test tubes and homogeneously distributed on the inner walls by rotation and tilting on a shaking device (2 h at 30 rpm). With a compound concentration of 900 ppm, an inner surface of 44.7 cm^2 and a homogeneous distribution, a dose of 5 μg/cm^2 is achieved.
After the solvent has evaporated, each test tube is filled with 5-10 adult brown dog ticks (Rhipicephalus sanguineus), closed with a perforated lid and incubated in a lying position at room temperature and relative humidity. After 48 hours efficacy is determined. The ticks are patted on the ground of the tubes and are incubated on a heating plate at 45-50° C. for at most 5 minutes Immotile or uncoordinated moving ticks, which are not able to escape the heat by climbing upwards, are marked as dead or moribund.
An efficacy of 100% means all ticks are dead or moribund; 0% means no ticks are dead or moribund.

The test system of assay [3] is green peach aphid (Myzus persicae). Briefly: Myzus persicae oral test. As to conditions: 120 h, 4 ppm, after 5 days. The procedure: • Solvent: 100 parts by weight acetone
To produce a suitable preparation of active compound, 1 part by weight of active compound is mixed with the stated amount of solvent, and the concentrate is diluted with water to the desired concentration.
50 μL compound solution is filled in microtiter plates and 150 μL IPL41 insect medium (33%+15% sugar) is added to obtain a total volume of 200 μL per well. Afterwards the plates are sealed with parafilm through which a mixed population of the green peach aphid (Myzus persicae) can suck on the compound preparation.
After 5 days mortality in % is determined. 100% means all aphids have been killed and 0% means none of the aphids have been killed.

The test system is the same in assay [4]. Briefly: Myzus persicae spray test. As to conditions: foliar, 120 h, after 5 days, Chinese cabbage leaf disks. The gist of the method:
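Chinese cabbage leaf disks infested with all aphid instars were sprayed with compound in acetone/DMF, diluted in water with 1000 ppm alkylarylpolyglycol ether emulsifier. Mortality (%) scored after 5 days, 100% meaning all aphids killed.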

Assay [5] has as its system larvae of the southern green stink bug (Nezara viridula). Briefly: Nezara viridula spray test. As to conditions: 96 h, 100 g/ha, after 4 days, barley plants. The gist of the method: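 Percent mortality of southern green stink bug larvae was recorded at day 4, with 100% meaning all dead. The larvae were placed on barley sprayed with the test solution. That solution was prepared from acetone/dimethylformamide concentrate diluted in emulsifier-containing water (1000 ppm).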

Assay [6] has as its system fall armyworm larvae (Spodoptera frugiperda). Briefly: Spodoptera frugiperda spray test. As to conditions: in Zea mays, 168 h. The gist of the method:
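Maize leaf sections were sprayed with compound in acetone/dimethylformamide diluted in water with 1000 ppm emulsifier, dried, then infested with larvae. Mortality in % was scored after 7 days, 100% meaning all caterpillars killed.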

Assay [7] concerns adult mosquitoes Aedes aegypti strain MONHEIM. Nature of the assay: Aedes aegypti test (AEDSAE surface treatment & contact assay). The settings on record: 24 hours after contact, read-out: efficacy (mortality). The method, boiled down:
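Compound in acetone (2 mg/ml) with 2000 ppm rapeseed oil methyl ester applied to glazed tile and dried; adult Aedes aegypti MONHEIM exposed on surface for 30 min. Percent mortality scored 24 h after contact.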

Assay [8] has as its system adult mosquitoes Culex quinquefasciatus strain P00. Nature of the assay: Culex quinquefasciatus test (CULXFA surface treatment & contact assay). As to conditions: surface concentration 20 mg/m^2, 30 minutes exposure, 24 hours after contact, read-out: efficacy (mortality). The gist of the method: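 Compound dissolved at 2 mg/ml in acetone with 2000 ppm rapeseed oil methyl ester, pipetted onto glazed tile and acetone evaporated. Adult Culex quinquefasciatus strain P00 exposed to dried surface for 30 minutes; percent mortality scored 24 hours after contact.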

The test system of assay [9] is adult flies Musca domestica strain WHO-N. Briefly: Musca domestica test (MUSCDO surface treatment & contact assay). As to conditions: surface concentration 4 mg/m^2, 30 minutes exposure, 24 hours after contact, read-out: efficacy (mortality). The method, boiled down:
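Compound dissolved in acetone (2 mg/ml) with 2000 ppm rapeseed oil methyl ester and dried onto glazed tiles. Adult WHO-N strain flies were held on the treated surface for 30 minutes, with % mortality scored 24 hours after contact.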

Regarding `C[C@H](NC(=O)c1cc(Cl)cc(OS(C)(=O)=O)c1)c1ncnn1-c1ccc(C#N)cn1` [Example I-46], the mortality at 100 ppm in [1] is 100%. The pest or weed control at 5 µg/cm2, 5 µg/cm2 in assay [2] stood at 100%. This molecule registered a mortality at 4 ppm in assay [3] of 100%. Further, the mortality at 100 g/ha in [4], in assay [5] and in assay [6] was 100% throughout. Besides, the mortality at 4 mg/m2 was 80 to 100% in assay [7] (surface concentration 4 mg/m^2, 30 minutes exposure) and 80 to 100% in assay [9]. Moreover, the mortality at 20 mg/m2 in assay [7] (surface concentration 20 mg/m^2, 30 minutes exposure) fell in the range of 80 to 100%; in [8] it was 80 to 100%.
